Molecules are shown by their SMILES.

For this test, the target named is T1, Cholesteryl ester transfer protein (Homo sapiens, UniProt P11597).
T1 sequence (P11597 whole entry): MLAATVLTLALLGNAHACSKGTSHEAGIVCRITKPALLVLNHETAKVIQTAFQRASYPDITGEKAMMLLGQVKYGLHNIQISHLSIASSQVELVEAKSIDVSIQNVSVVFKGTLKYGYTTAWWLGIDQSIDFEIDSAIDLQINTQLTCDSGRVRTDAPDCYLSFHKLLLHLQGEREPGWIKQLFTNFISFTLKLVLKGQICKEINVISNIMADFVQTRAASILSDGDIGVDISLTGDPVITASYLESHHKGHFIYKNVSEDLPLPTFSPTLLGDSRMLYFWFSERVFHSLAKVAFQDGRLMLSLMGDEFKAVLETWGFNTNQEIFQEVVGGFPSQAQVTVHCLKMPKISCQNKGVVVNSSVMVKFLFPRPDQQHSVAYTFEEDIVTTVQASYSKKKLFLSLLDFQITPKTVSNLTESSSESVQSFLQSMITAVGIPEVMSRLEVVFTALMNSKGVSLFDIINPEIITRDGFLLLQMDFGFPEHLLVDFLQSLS
In words: CETP Inhibition Assay: A recombinant human CETP protein (manufactured by Roar Biomedical Inc.; 4.5 ng), the acceptor lipoprotein described in (2) above (32.5 ug) and 5,5'-dithio-bis-(2-nitrobenzoic acid) (7 mM, 15 ul) were taken in a 96 well plate and the total amount of the mixture was adjusted to 48.5 ul with the PBS solution. The test compound [DMSO solution (concentration: 0.15, 0.5, 1.5, 5, 15, 50, 150 and 500 uM; 1.5 ul] was added to each well and the mixture was incubated in a thermostatic bath at 37° C. for 60 minutes. The reconstituted HDL (50 ul) described in (1) above was added to each well and the mixture was reacted in a thermostatic bath at 37° C. for 60 minutes. The 96 well plate was moved onto ice and a precipitation reagent [a mixed solution of magnesium chloride (60 mM) and 0.1% dextran sulfate [1/1 (v/v)]; 15 ul] was added to each well, and then the mixture was allowed to stand on ice for 15 minutes.
Consider `CC1(C)Cc2nc(C3CCN(c4ncc(N5CCS(=O)(=O)CC5)cn4)CC3)c([C@@H](F)c3ccc(C(F)(F)F)cc3)c(C3CCC(F)(F)CC3)c2[C@@H](O)C1`, for which the IC50 – broadly, the midpoint of a concentration-inhibition curve – was determined as 49 nM.
With `CCOc1cnc(N2CCC(c3nc4c(c(C5CCC(F)(F)CC5)c3[C@@H](F)c3ccc(C(F)(F)F)cc3)[C@@H](O)CC(C)(C)C4)CC2)nc1` (single isomer, unassigned), the IC50 was 92 nM.
With `CC1(C)Cc2nc(C3CCN(c4ncc(Br)cn4)CC3)c([C@@H](F)c3ccc(C(F)(F)F)cc3)c(C3CCC(F)(F)CC3)c2[C@@H](O)C1` (single isomer, unassigned) the figure was 150 nM.
As for `CC1(C)Cc2nc(C3CCN(c4ncc(OCCO)cn4)CC3)c([C@@H](F)c3ccc(C(F)(F)F)cc3)c(C3CCC(F)(F)CC3)c2[C@@H](O)C1`, the IC50 is 37 nM.

(Values after ChEMBL document CHEMBL3886367, “Substituted pyridine compound” (2015).)
